Reference: the CombiSolv-Exp solvation set (Vermeire and Green 2021)

Assay: solvent given as SMILES

O=C=S
Details | solvation free energy, 298 K [kcal/mol]
in CC1COC(=O)O1 | -1.15
in CN1CCCC1=O | -1.41
in COCCOCCOCCOCCOC | -1.41
in O | 0.41

CC(C)CCCC(C)C1CCC2C3CC=C4CC(O)CCC4(C)C3CCC12C (stereo not drawn)
Details | solvation free energy, 298 K [kcal/mol]
in O | -5.93

CC(C)CCO
Details | solvation free energy, 298 K [kcal/mol]
in Brc1ccccc1 | -5.27
in C1CCOC1 | -6.32
in CC#N | -5.58
in CC(C)O | -6.51
in CCCCCC | -4.05
in CCCCCCC | -3.96
in CCCCCCCC | -3.98
in CCCCCCCCCCO | -6.18
in CCCCCCCCO | -6.08
in CCCCOC(C)=O | -5.78
in CO | -6.77
in Cc1ccc(C)cc1 | -4.93
in Cc1cccc(C)c1 | -4.93
in Cc1ccccc1C | -4.94
in Clc1ccccc1 | -5.13
in O | -4.41
in [2H]O[2H] | -4.43

CC1CCCCC1
Details | solvation free energy, 298 K [kcal/mol]
in C1CCOC1 | -4.67
in C1COCCO1 | -4.09
in CC1CCS(=O)(=O)C1 | -3
in CC#N | -3.28
in CC(=O)N(C)C | -3.68
in CC(C)=O | -3.93
in CC(C)CCCC(C)CCCC(C)CCCCC(C)CCCC(C)CCCC(C)C | -4.3
in CC(C)O | -3.79
in CCC#N | -4.07
in CCC(C)=O | -4.12
in CCCC#N | -3.63
in CCCCC(CC)COC(=O)c1ccccc1C(=O)OCC(CC)CCCC | -3.99
in CCCCCCC | -4.79
in CCCCCCCCC=CCCCCCCCC(=O)OCC(COC(=O)CCCCCCCC=CCCCCCCCC)OC(=O)CCCCCCCC=CCCCCCCCC | -4.26
in CCCCCCCCCC | -4.57
in CCCCCCCO | -4.16
in CCCCN(C=O)CCCC | -4.05
in CCCCOC(=O)c1ccccc1C(=O)OCCCC | -4.11
in CCOC(=O)c1ccccc1C(=O)OCC | -3.59
in CN1CCCC1=O | -3.59
in CN1CCCCC1=O | -3.72
in CN(C)C=O | -3.52
in CNC(C)=O | -3.59
in CNC=O | -3.18
in COC(C)(C)C | -4.8
in COCCO | -3.47
in CS(C)=O | -2.73
in NC=O | -1.42
in Nc1ccccc1 | -3.29
in O | 1.7
in O=C1CCCO1 | -3
in O=CN1CCOCC1 | -2.94
in OCCCCCO | -2.87
in OCCCCO | -2.77
in OCCCO | -2.39
in OCCO | -1.58
in OCCOCCO | -2.38
in OCCOCCOCCO | -2.44
in OCCOCCOCCOCCO | -2.55
in OCCS | -2.82

O=C(O)c1ccc(Br)cc1
Details | solvation free energy, 298 K [kcal/mol]
in CN(C)C=O | -12.3
in O | -6.67

CCCCCCCCCC
Details | solvation free energy, 298 K [kcal/mol]
in CCC(C)(C)OC | -6.77
in CCC(C)=O | -6.01
in CCCCCC | -6.85
in CCCCCCCCCCCCCCCC | -6.34
in CCO | -5.35
in CCOC(=O)c1ccccc1C(=O)OCC | -5.13
in CN1CCCC1=O | -4.92
in CN(C)C=O | -4.94
in COCCO | -4.75
in Cc1ccc(C)cc1 | -6.68
in N#CCCCCC#N | -3.99
in O | 3.18
in O=CN1CCOCC1 | -4.15
in OCCO | -2.19
in OCCOCCO | -3.2
in OCCOCCOCCO | -3.33
in OCCOCCOCCOCCO | -3.61

COC(=O)C(C)(C)C
Details | solvation free energy, 298 K [kcal/mol]
in O | -2.4

CCCCBr
Details | solvation free energy, 298 K [kcal/mol]
in C=CCCCCCCCCCCCCCC | -4.19
in CC(C)(C)O | -4.09
in CC(C)CO | -4.15
in CCC(C)O | -4.19
in CCCCCCCCCCO | -4.19
in CCCCCCCCO | -4.22
in CCO | -4.22
in ClC(Cl)(Cl)Cl | -4.75
in O | -0.34

CF
Details | solvation free energy, 298 K [kcal/mol]
in CCCO | 0.03
in O | -0.22
